Assay: Effective concentration of compound was determined for electrophysiological properties on Ionotropic glutamate receptor AMPA 1 (GluR1) using […] Xenopus laevis oocytes

With `NC(Cc1o[nH]c(=O)c1Cl)C(=O)O` [(R,S)-2-amino-3-(4-chloro-3-hydroxy-5-isoxazolyl)propionate] the EC50 was 4.7 µM.
